Reference: paper PMC11303563 (Communications Medicine, 2024)
“And” between values parts separate entries of the source, which are not always exact repeats. Identical values can stand only once.

Legend:
[1] = test system: high-fat diet (HFD)-induced obesity model mice; assay: Body weight of high-fat diet-induced obesity model mice; type: in vivo, C57BL/6J mice; design: Body weight, Mean Diff. ND vs. treated: unit not given here; conditions: for Body weight, 95.00% CI of diff. ND vs. treated / Body weight, Mean Diff. ND vs. treated: ND group as comparator; for Body weight, 95.00% CI of diff. ND vs. treated / Body weight, Mean Diff. ND vs. treated / Body weight, 95.00% CI of diff. Vehicle vs. treated / Body weight, Mean Diff. Vehicle vs. treated: Tukey's multiple comparisons test; for Body weight, Mean Diff. Vehicle vs. treated / Body weight, group mean (Fig. 3a) / Body weight, individual mice (Fig. 3a): in g (unit assumed); for Body weight, group mean (Fig. 3a) / Body weight, individual mice (Fig. 3a) / decrease of body weight compared to vehicle: HFD mice; for Body weight, group mean (Fig. 3a): n 10; for decrease of body weight compared to vehicle: 3 weeks
Description: The injection was given 6 h after light on. Food consumption and body weights were measured weekly. Food and water were provided to the animals ad libitum. The animals were treated according to the guidelines of Nagoya University, and all experimental procedures were approved by the Animal Experiment Committee of Nagoya University (A210715-003).
(§1) Epididymal adipose tissue was weighed.
(§2) Fig. 3 Effects of intraperitoneal injection of TH analogs on body weight and deposition of visceral fat. […] After three weeks of injection, body weight (a), and weight of the epididymal adipose tissue (b) were measured.

[2] = test system: high-fat diet (HFD)-induced obesity model mice; assay: Weight of epididymal adipose tissue (visceral fat) in HFD mice; type: in vivo, C57BL/6J mice; conditions: for Fig. 3b (weight of epididymal adipose tissue), group mean (Mean 2): n=10; for Fig. 3b (weight of epididymal adipose tissue), group mean (Mean 2) / Fig. 3b (weight of epididymal adipose tissue), Mean Diff. ND vs. treatment (Tukey) / Fig. 3b (weight of epididymal adipose tissue), Mean Diff. Vehicle vs. treatment (Tukey) / Epididymal adipose weight, individual mice (Fig. 3b): in mg (unit assumed); for Fig. 3b (weight of epididymal adipose tissue), Mean Diff. ND vs. treatment (Tukey): ND minus treated; for Fig. 3b (weight of epididymal adipose tissue), Mean Diff. Vehicle vs. treatment (Tukey): Vehicle minus treated
Description: as §1, §2

[3] = test system: high-fat diet (HFD)-induced obesity model mice; assay: Serum lipid analysis (total cholesterol, triglycerides) in HFD mice; type: in vivo, C57BL/6J mice; design: Serum TC (Fig. 4a), individual mouse values / Serum TG (Fig. 4b), individual mouse values / Serum TC (Fig. 4a), Mean Diff. ND vs. treatment (Tukey) / Serum TC (Fig. 4a), Mean Diff. Vehicle vs. treatment (Tukey) / Serum TC (Fig. 4a), group mean (Mean 2) / Mean Diff., ND vs. treated (Fig. 4b) / Mean Diff., Vehicle vs. treated (Fig. 4b) / Mean (Fig. 4b): unit not given here; conditions: for Serum TC (Fig. 4a), group mean (Mean 2) / Mean (Fig. 4b): n=10; for Serum TC (Fig. 4a), Mean Diff. ND vs. treatment (Tukey): ND minus treated; for Serum TC (Fig. 4a), Mean Diff. Vehicle vs. treatment (Tukey): Vehicle minus treated; for Mean Diff., ND vs. treated (Fig. 4b) / Mean Diff., Vehicle vs. treated (Fig. 4b): Tukey's multiple comparisons test; for Mean (Fig. 4b): group mean
Description: Fig. 4 Effects of TH analogs on the accumulation of lipids in mice. […] After 3 weeks of injection, serum and liver tissues were collected, and the amount of serum cholesterol (a), serum triglycerides (b), liver cholesterol (c), liver triglycerides (d), and liver total lipids (e) were measured.

[4] = In vitro blood-brain barrier permeability assay (BBB kit RBT-24H); type: in vitro ADME, rat
Description: Therefore, we tested BBB transparency in vitro using the BBB kit RBT-24H (PharmaCo-Cell)[35]. […] Blood-brain barrier permeability assay The blood-brain barrier (BBB) transparency of TH analogs was assessed in vitro using RBT-24H (PharmaCo-Cell)[5] according to the manufacturer 's protocol. […] After 30 min, the assay buffer in the wells mimicking the abluminal side was collected, and the concentration of the compounds was measured using liquid chromatography-mass spectrometry (LC-MS). […] These tips were preconditioned with 20 μL of acetonitrile and 20 μL of 0.1% TFA in purified water. 100 μL of the samples were loaded onto the preconditioned tips, washed with 200 μL of DW, and then eluted with 10 μL of acetonitrile. Triazine (1% vol/vol) was added to the eluent as an internal standard. […] 3 μm; Imtakt, Kyoto, Japan). All the experiments were performed using an Ultimate 3000 UHPLC system coupled with a Q Exactive Plus Orbitrap mass spectrometer (Thermo Fisher Scientific). […] Data were shown as mean ± standard deviation (n=3).

[5] = test system: THR-regulated genes and lipid metabolism-related genes in the liver
[6] = HFD mice, 1 μmol/kg day, RT-qPCR, reference gene Rps18
[7] = liver gene expression, 1µmol dose group vs. Vehicle

Structure (SMILES): Cc1cc(OCC(=O)O)cc(C)c1Cc1ccc(O)c(C(C)C)c1 [GC-1]
- Body weight, 95.00% CI of diff. ND vs. treated ([1]; 0.1 µmol dose group): -9.046 to -0.3347
- Body weight, Mean Diff. ND vs. treated ([1]; 0.1 µmol dose group): -4.69
- Body weight, 95.00% CI of diff. Vehicle vs. treated ([1]; 0.1 µmol dose group): 5.485 to 13.92
- Body weight, Mean Diff. Vehicle vs. treated ([1]; 0.1 µmol dose group): 9.704
- Body weight, 95.00% CI of diff. ND vs. treated ([1]; 1 µmol dose group): -9.111 to -0.3997
- Body weight, Mean Diff. ND vs. treated ([1]; 1 µmol dose group): -4.755
- Body weight, 95.00% CI of diff. Vehicle vs. treated ([1]; 1 µmol dose group): 5.420 to 13.86
- Body weight, Mean Diff. Vehicle vs. treated ([1]; 1 µmol dose group): 9.639
- Body weight, group mean (Fig. 3a) ([1]; 0.1 µmol dose group): 33.21
- Body weight, individual mice (Fig. 3a) ([1]; 0.1 µmol dose group): 29.83 and 31.33 and 29.67 and 36.57 and 36.31 and 35.71 and 35.26 and 34.18 and 33.67 and 29.56
- Body weight, group mean (Fig. 3a) ([1]; 1 µmol dose group): 33.27
- Body weight, individual mice (Fig. 3a) ([1]; 1 µmol dose group): 32.13 and 30.51 and 31.76 and 34.15 and 34.95 and 32.95 and 36.28 and 31.91 and 35.57 and 32.53
- decrease of body weight compared to vehicle ([1]; i.p. 0.1 µmol/kg day): ~ 20%
- decrease of body weight compared to vehicle ([1]; i.p. 1 µmol/kg day): ~ 20%
- Fig. 3b (weight of epididymal adipose tissue), group mean (Mean 2) ([2]; 0.1 µmol, HFD mice): 1486
- Fig. 3b (weight of epididymal adipose tissue), Mean Diff. ND vs. treatment (Tukey) ([2]; 0.1 µmol): -802.3
- Fig. 3b (weight of epididymal adipose tissue), Mean Diff. Vehicle vs. treatment (Tukey) ([2]; 0.1 µmol): 1372
- Fig. 3b (weight of epididymal adipose tissue), group mean (Mean 2) ([2]; 1 µmol, HFD mice): 1093
- Fig. 3b (weight of epididymal adipose tissue), Mean Diff. ND vs. treatment (Tukey) ([2]; 1 µmol): -410.1
- Fig. 3b (weight of epididymal adipose tissue), Mean Diff. Vehicle vs. treatment (Tukey) ([2]; 1 µmol): 1765
- Epididymal adipose weight, individual mice (Fig. 3b) ([2]; HFD mice, 0.1 µmol dose group): 1120.1 and 1287.3 and 1051.5 and 1562.9 and 1102.8 and 1733.2 and 1866.1 and 1900.9 and 1746.2 and 1485.7
- Epididymal adipose weight, individual mice (Fig. 3b) ([2]; HFD mice, 1 µmol dose group): 1157.5 and 882.3 and 1400.3 and 1216.9 and 1046.3 and 975.7 and 1192.5 and 1112.9 and 1063.5 and 886.8
- weight of the epididymal adipose tissue vs vehicle ([2]; HFD mice, i.p., dose not given (0.1 or 1 µmol/kg day), 3 weeks): decreased significantly
- Serum TC (Fig. 4a), individual mouse values ([3]; 0.1 µmol, HFD mice): 76.25 and 108.417 and 114.042 and 114.792 and 113.958 and 112.208 and 91.25 and 101.875 and 101.042 and 98.458
- Serum TG (Fig. 4b), individual mouse values ([3]; 0.1 µmol, HFD mice): 47.583 and 67.583 and 60.917 and 64.75 and 51.417 and 64.25 and 45.083 and 40.917 and 120.083
- Serum TC (Fig. 4a), group mean (Mean 2) ([3]; 0.1 µmol, HFD mice): 103.2
- Serum TC (Fig. 4a), Mean Diff. ND vs. treatment (Tukey) ([3]; 0.1 µmol): 76.19
- Serum TC (Fig. 4a), Mean Diff. Vehicle vs. treatment (Tukey) ([3]; 0.1 µmol): 146.8
- Serum TC (Fig. 4a), individual mouse values ([3]; 1 µmol, HFD mice): 114.667 and 103 and 123.208 and 101.042 and 100.208 and 100.542 and 101.667 and 117.708 and 116.875 and 87.208
- Serum TG (Fig. 4b), individual mouse values ([3]; 1 µmol, HFD mice): 89.25 and 100.917 and 117.583 and 93.417 and 90.917 and 81.75 and 125.917 and 105.083 and 72.583 and 61.75
- Serum TC (Fig. 4a), group mean (Mean 2) ([3]; 1 µmol, HFD mice): 106.6
- Serum TC (Fig. 4a), Mean Diff. ND vs. treatment (Tukey) ([3]; 1 µmol): 72.81
- Serum TC (Fig. 4a), Mean Diff. Vehicle vs. treatment (Tukey) ([3]; 1 µmol): 143.5
- Mean Diff., ND vs. treated (Fig. 4b) ([3]; ND minus 0.1 µmol group): 84.09
- Mean Diff., ND vs. treated (Fig. 4b) ([3]; ND minus 1 µmol group): 52.85
- Mean Diff., Vehicle vs. treated (Fig. 4b) ([3]; Vehicle minus 0.1 µmol group): 53.09
- Mean Diff., Vehicle vs. treated (Fig. 4b) ([3]; Vehicle minus 1 µmol group): 21.86
- Mean (Fig. 4b) ([3]; 0.1 µmol, HFD mice): 62.68
- Mean (Fig. 4b) ([3]; 1 µmol, HFD mice): 93.92
- serum triglyceride level vs vehicle ([3]; HFD mice, i.p. 0.1 µmol/kg day, 3 weeks): decreased
- Abluminal concentration ([4]; 10 µM on luminal side, 30 min, mean ± standard deviation (n=3)): 0.0966 ± 0.0234 µM
- Papp at 30 min, 10 µM ([4]; rat, 10 μM on luminal side, read-out: apparent permeability (Papp)): 14.6 ± 3.54 ×10⁻⁶ cm/s
- Dio1 expression in the liver, individual animal values ([5]; 1µmol, one value per animal): 3.829 and 3.919 and 5.168 and 4.354 and 3.692 and 2.159 and 3.566 and 3.314 and 5.1441 and 5.131
- Ldlr expression in the liver, individual animal values ([5]; 1µmol, one value per animal): 1.223 and 2.2 and 0.6334 and 0.7002 and 0.6702 and 3.257 and 0.3372 and 1.534 and 1.675
- Me1 expression in the liver, individual animal values ([5]; 1µmol, one value per animal): 1.623 and 3.346 and 4.729 and 3.444 and 1.386 and 2.548 and 5.3983 and 2.089 and 4.684 and 5.253
- Pnpla2 expression in the liver, individual animal values ([5]; 1µmol, one value per animal): 2.545 and 1.795 and 3.166 and 2.343 and 2.009 and 2.4714 and 3.073 and 2.97 and 1.253 and 2.348
- Srebp1c expression in the liver, individual animal values ([5]; 1µmol, one value per animal): 0.08164 and 0.06602 and 0.1318 and 0.09978 and 0.1458 and 0.0919 and 0.4057 and 0.2719 and 0.0552 and 0.07309
- Thrsp expression in the liver, individual animal values ([5]; 1µmol, one value per animal): 1.4847 and 1.604 and 3.066 and 1.407 and 2.579 and 0.6637 and 2.019 and 1.066 and 1.315 and 1.484
- liver expression of Dio1 vs vehicle [5, 6]: significantly upregulated
- liver expression of Ldlr vs vehicle [5, 6]: not significantly different
- liver expression of Me1 vs vehicle [5, 6]: significantly upregulated
- liver expression of Pnpla2 vs vehicle [5, 6]: significantly higher
- liver expression of Srebp1c vs vehicle [5, 6]: significantly lower
- liver expression of Thrsp vs vehicle [5, 6]: increased
- Pnpla2, Dunn's multiple comparisons test, Mean rank diff. (Vehicle vs. compound) [5, 7]: -16.8
- Srebp1c, Dunn's multiple comparisons test, Mean rank diff. (Vehicle vs. compound) [5, 7]: 22.27
- Pnpla2, Mean rank of treatment group (Mean rank 2) ([5]; liver gene expression, 1µmol dose group, Vehicle mean rank 8): 24.8
- Srebp1c, Mean rank of treatment group (Mean rank 2) ([5]; liver gene expression, 1µmol dose group, Vehicle mean rank […]): 11.4
